The record followed here is patent publication US8889731B2, “Compounds, compositions and methods for repelling blood-feeding arthropods and deterring their landing and feeding” (Contech Enterprises Inc., priority 2007, dated 2014).

The test system of one test is Aedes aegypti. Kind of test: Arm-in-cage repellent/deterrent bioassay on exposed human forearm (modified WHO protocol), Aedes aegypti. The class given is in vivo. Here is the method: (§1) Candidate repellents and deterrents were bioassayed according to a modified protocol from the World Health Organization (1996). At least 1 hour prior to each bioassay, 75 host-seeking non blood-fed, nulliparous, 5- to 8-day-old female Aedes aegypti, Anopheles gambiae or Culex quinquefasciatus were placed into a wood-framed cage (26.5 cm on each side and 42.5 cm high) with a wooden floor, screened mesh sides and top, and a clear acrylic front fitted with a cotton stockinette sleeve (10 cm diameter). The test subject's arm was covered with an elbow-length polyethylene glove with an excised patch (16.6 cm long, 6 cm wide) to expose the ventral forearm of the test subject. Candidate deterrents were formulated in mineral (paraffin) oil and applied to the exposed forearm 5 min prior to inserting the arm into the cage. The inserted arm remained in the cage for 3 min every 30 min. Prior to each 3-min bioassay period, the hand of the untreated arm was inserted into the cage to ascertain that it received 10 bites within 30 sec as an indication of “biting pressure”.
(§2) The bioassay was terminated when the treated arm received ≧2 bites in one 3-min bioassay period or one bite in each of two consecutive bioassay periods. The time elapsed from experiment initiation to first bite was recorded as deterrent failure or complete protection time.
(§3) N,N-diethyl-m-toluamide formulated in ethanol at a corresponding dose served as a positive control, and mineral oil by itself served as a negative control. On each day, only one candidate compound was tested, ensuring that any residual material in the chamber had disappeared before the next bioassay.
To determine the repellence and deterrence of 8-allylsulfanyloctan-1-ol against Aedes aegypti, a 5%, 10% or 25% formulation of 8-allylsulfanyloctan-1-ol in mineral oil was applied in Experiments 1-3 at a dose of 1.5 mg (total composition) per cm^2 to the skin of the test person, and was bioassayed according to the protocol described under EXAMPLE 2. In Experiment 4, mineral oil by itself served as a negative control and was bioassayed at the same dose (1.5 mg per cm^2) as in Experiments 1-3. Each of Experiments 1-4 was replicated four times.
To compare the repellence and deterrence against Aedes aegypti caused by 8-allylsulfanyloctan-1-ol as a single active ingredient and by 8-allylsulfanyloctan-1-ol in combination with vanillin as a second active ingredient, we tested a 6.7% emulsion of vanillin (Experiment 14), a 6.7% emulsion of 8-allylsulfanyloctan-1-ol (Experiment 15), and a 13.4% emulsion of 8-allylsulfanyloctan-1-ol plus vanillin (1:1 ratio) (Experiment 16). 8-Allylsulfanyloctan-1-ol and vanillin were formulated in Emulsion No. 1 (see EXAMPLE 9). In each of Experiments […], test stimuli were applied at a dose of 1.5 mg per cm^2 to the skin of the test person, and were bioassayed according to the protocol described under EXAMPLE 2. In Experiment 17, Emulsion No. 1 served as a positive control and was tested at the same dose (1.5 mg per cm^2) as in Experiments 14-16.
To be able to compare the repellence and deterrence caused by N,N-diethyl-m-toluamide and by 8-allylsulfanyloctan-1-ol plus vanillin in Emulsion No. 1 (EXAMPLE 9), Experiment 26 tested a 6.7% formulation of N,N-diethyl-m-toluamide in ethanol (the best formulant for DEET) for protection from bites by Aedes egypti. In each replicate, a dose of 1.5 mg per […] was applied to the skin of the test person and bioassayed according to the protocol described under EXAMPLE 2.
To be able to further compare the deterrence caused by N,N-diethyl-m-toluamide with that caused by 8-allylsulfanyloctan-1-ol plus vanillin, Experiment 27 tested a 10.4% formulation of N,N-diethyl-m-toluamide in ethanol, and Experiment 28 tested 8-allylsulfanyloctan-1-ol (10.4%) plus vanillin (7.9%) in Emulsion No. 2 (EXAMPLE 10). […]

For another test, the system named is mosquitoes. The test is described as follows: General bioassay procedure with garlic oil, its components and fractions (mosquito species not given). The format is in vivo. Here is the method: as §1, §2, §3
Garlic oil (Allium sativum—Mexico; Clearwater Soap Works, Box 1775 RR1, Clearwater, BC V0E 1N0, Canada) was formulated in mineral oil and tested using the general bioassay procedure described in EXAMPLE 2 at a dose of 0.1 mg per cm^2 of arm surface. It expressed repellence and deterrence for ˜30 min.
Some of the 10 components in FIG. 1 were bioassayed singly (see general bioassay procedure) and in various combinations, all of which were as deterrent to mosquitoes as garlic oil.
To determine the most deterrent component(s) in garlic oil, it was fractionated by HPLC into four fractions, each containing one or more of the EAD-active components (compounds 1-10 in FIG. 1 and 11-14 in TABLE 2). Each fraction was then bioassayed and shown to be similarly effective in repelling and deterring mosquitoes.
Components with high molecular weight (>250 daltons) are advantageous in that they: 1) dissipate slowly from treated surfaces; 2) provide long-lasting protection against mosquitoes and 3) convey little, if any, offensive smell. The relative abundance of such components was enhanced by treating garlic oil under vacuum, thus stripping away lower-boiling components. In GC-EAD analyses of the high-boiling residue, four components elicited responses from mosquito antennae.

Molecules are shown by their SMILES.

Regarding `C=CCSCCCCCCCCO` [Compound 24, 8-allylsulfanyloctan-1-ol], the “protection from bites, average duration” value was 52 min with Aedes aegypti (5% formulation in mineral oil, 1.5 mg per cm^2, Experiment 1); 77 min in the test on Aedes aegypti (6.7% single active in Emulsion No. 1, 1.5 mg per cm^2, Experiments 14, 15); 157 min in the test with Aedes aegypti (10% formulation in mineral oil, 1.5 mg per cm^2, Experiment 2); 305 min in the test on Aedes aegypti (25% formulation in mineral oil, 1.5 mg per cm^2, Experiment 3). Further, in the test with mosquitoes, the “repellent and deterrent effect in bioassays (in words)” value was “very potent, even at a low dose”.
